# Results from patent US8314215B2, “Mild chemically cleavable linker system” (The Board of Trustees of the Leland Stanford Junior …, priority 2006, dated 2012).
# Assays:
# [1] = biological target: T1, carbamoyl-phosphate synthase 1 (Mus musculus, UniProt Q8C196); assay: LC/MS/MS identification of proteins from mouse liver extracts labeled with MTS-I-49; format: biochemical
# T1 construct: from tissue; host or cells: mouse liver extract
# T1 sequence (Q8C196 39-1500): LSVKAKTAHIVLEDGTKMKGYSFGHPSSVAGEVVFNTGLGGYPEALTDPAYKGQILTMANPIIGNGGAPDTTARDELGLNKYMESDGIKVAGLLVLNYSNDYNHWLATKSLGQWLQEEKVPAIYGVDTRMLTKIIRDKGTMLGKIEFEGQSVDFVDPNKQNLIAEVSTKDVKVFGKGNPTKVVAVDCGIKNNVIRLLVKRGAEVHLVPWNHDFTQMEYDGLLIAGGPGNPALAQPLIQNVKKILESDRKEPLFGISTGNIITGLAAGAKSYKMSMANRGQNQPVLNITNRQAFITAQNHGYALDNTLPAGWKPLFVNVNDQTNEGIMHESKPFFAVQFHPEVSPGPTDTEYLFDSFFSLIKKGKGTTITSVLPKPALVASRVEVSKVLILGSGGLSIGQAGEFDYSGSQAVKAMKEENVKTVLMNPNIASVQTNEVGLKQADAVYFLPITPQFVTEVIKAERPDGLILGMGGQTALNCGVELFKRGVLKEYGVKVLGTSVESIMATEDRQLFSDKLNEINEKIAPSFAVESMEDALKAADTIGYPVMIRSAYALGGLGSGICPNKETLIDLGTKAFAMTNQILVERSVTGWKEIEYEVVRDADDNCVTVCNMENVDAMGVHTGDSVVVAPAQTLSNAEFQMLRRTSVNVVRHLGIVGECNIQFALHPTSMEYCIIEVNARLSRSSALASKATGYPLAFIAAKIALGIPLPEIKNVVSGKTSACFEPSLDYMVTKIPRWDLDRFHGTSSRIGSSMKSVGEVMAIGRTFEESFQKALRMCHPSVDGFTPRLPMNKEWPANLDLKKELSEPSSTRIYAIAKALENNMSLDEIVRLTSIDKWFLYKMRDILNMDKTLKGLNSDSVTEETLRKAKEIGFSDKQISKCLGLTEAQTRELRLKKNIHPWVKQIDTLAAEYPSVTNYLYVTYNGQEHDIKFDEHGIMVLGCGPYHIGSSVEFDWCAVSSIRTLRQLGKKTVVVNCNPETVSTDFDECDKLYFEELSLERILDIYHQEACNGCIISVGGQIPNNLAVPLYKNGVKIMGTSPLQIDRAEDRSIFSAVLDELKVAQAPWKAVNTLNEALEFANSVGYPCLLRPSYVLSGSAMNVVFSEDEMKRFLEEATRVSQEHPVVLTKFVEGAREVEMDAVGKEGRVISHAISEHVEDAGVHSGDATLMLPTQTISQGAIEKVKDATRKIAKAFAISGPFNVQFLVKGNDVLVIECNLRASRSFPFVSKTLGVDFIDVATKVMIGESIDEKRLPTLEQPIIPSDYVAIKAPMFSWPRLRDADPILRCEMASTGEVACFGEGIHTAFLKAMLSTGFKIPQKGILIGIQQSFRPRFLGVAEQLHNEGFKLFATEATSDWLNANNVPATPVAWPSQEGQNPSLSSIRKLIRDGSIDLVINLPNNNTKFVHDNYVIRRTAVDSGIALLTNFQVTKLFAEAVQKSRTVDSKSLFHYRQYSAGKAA
# From the text: (§1) (1991) Irreversible inhibition of serine proteases by peptide derivatives of (alpha-aminoalkyl)phosphonate diphenyl esters. Biochemistry 30, 485-493). However, it has not been used for any proteomic applications. We used MTS-I-49 to label mouse liver extracts and analyze the labeled sample by both SDS-PAGE (FIG. 5B) and by direct chemical cleavage or on bead digestion.
# (§2) After enrichment on immobilized avidin, each of the three labeled proteomes (FIG. 5b) was divided into two aliquots. One was prepared for LC-MS/MS analysis by “on bead” digestion, while the other was chemically eluted and digested “in solution.” Proteins identified in each tissue lysate are listed with their accession number and theoretical molecular weight (MW). To compare both approaches, the number of identified peptides and percentage of amino acid sequence coverage is listed for each protein.
# (§3) Proteins in the above Table were identified by LC/MS/MS analysis of on bead digested or chemically eluted proteins from mouse liver extracts labeled with MTS-I-49. […] BLAST database searching identified it as liver carboxylesterase 4. A number of additional endogenously biotinylated proteins were identified in the on-bead digested sample.
# [2] = biological target: T2, hemoglobin alpha 1 (Mus musculus, UniProt P01942); assay: as above; format: biochemical
# T2 construct: from tissue; host or cells: mouse liver extract
# From the text: as §1, §2, §3
# [3] = chemically eluted, digested in solution
# T2 sequence (P01942 2-142 limits assumed): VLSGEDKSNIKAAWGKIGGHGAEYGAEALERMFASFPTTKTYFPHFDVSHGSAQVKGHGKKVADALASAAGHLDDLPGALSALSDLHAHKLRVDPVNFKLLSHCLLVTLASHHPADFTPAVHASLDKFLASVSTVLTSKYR
# T2 sequence (P02088 2-147 partner limits assumed): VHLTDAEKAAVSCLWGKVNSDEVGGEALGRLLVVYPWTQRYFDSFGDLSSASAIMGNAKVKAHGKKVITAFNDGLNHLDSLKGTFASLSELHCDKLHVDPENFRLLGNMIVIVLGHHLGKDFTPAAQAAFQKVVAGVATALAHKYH
structure (smiles),measurement,setting,value
C[C@H](NC(=O)c1ccc(N=Nc2cc(CCNC(=O)CCCC[C@@H]3SC[C@@H]4NC(=O)N[C@@H]43)ccc2O)cc1)C(=O)N[C@@H](C)C(=O)NC(Cc1ccccc1)P(=O)(Oc1ccccc1)Oc1ccccc1 (stereo partly drawn) [MTS-I-49],"Chemical Cleavage, number of identified peptides",[1]; [3],0
same,"On Bead Digestion, amino acid sequence coverage",[1]; on bead digestion,2 (2%)
same,"On Bead Digestion, number of identified peptides",[1]; on bead digestion,2 (2%)
same,"Chemical Cleavage, number of identified peptides",[2]; [3],0
same,"On Bead Digestion, amino acid sequence coverage",[2]; on bead digestion,25%
same,"On Bead Digestion, number of identified peptides",[2]; on bead digestion,3
